Laboratory results from paper PMC5590075, “Synthesis, Antimicrobial, and Antioxidant Activities of Chalcogen-Containing Nitrone Derivatives from (R)-citronellal” (Medicines, 2017).
Values joined by “and” are separate entries in the source; they are usually repeats but may differ in a detail not shown here. Equal entries are not always repeated.

Columns and labels:
[1] = tested on: Bacillus cereus ATCC 11778; test: agar disk diffusion test; format: cell-based; settings: B. cereus, 1.0 × 10^8 CFU.mL^−1; 20 μL compound diluted in DMSO (1:1) per 6 mm disc; streptomycin 10 µg; mean of two repetitions
Description: (§1) To evaluate the antimicrobial potential of the synthesized compounds, the following reference strains of bacteria, that are economically important in foods, were employed: Gram-positive Listeria monocytogenes ATCC 7644, Staphylococcus aureus ATCC 25923, and Bacillus cereus ATCC 11778; Gram-negative Salmonella Typhimurium ATCC 14028, Escherichia coli O157: H7 NCTC 12900 and the clinically important Pseudomonas aeruginosa ATCC 15442.
(§2) The antimicrobial activity assay using the disk diffusion test was realized using the methodology that is recommended by the Clinical Laboratory Standards Institute (CLSI). The determination of the minimum inhibitory concentration (MIC) and minimum bactericidal concentration (MBC) was performed using the macro dilution tube method, in accordance with Rota et al., with modifications. Details of these assays are provided in the Supplemental Material. […]
(§3) 2.1. Antimicrobial activity assay using the disk diffusion test
(§4) The disk diffusion test followed the methodology recommended by the Clinical Laboratory Standards Institute CLSI [4]. The inoculum was standardized by standard McFarland to the concentration of 10^8 CFU.mL−1 and spread on the surface of a Petri dish containing Mueller‐Hinton (MH) agar. Then, the paper disc (6 mm) was put on a plate impregnated with 20 μL of the testing compound previously diluted in DMSO (1:1) and incubated at 37 °C for 24 hours. Zone of inhibition ≥20 mm were considered as strong inhibition, <20–12 mm as moderate inhibition, and <12 mm no inhibition. A positive control with streptomycin antibiotic (10 μg) and a negative one, with paper discs impregnated with distilled water, were used […]
(§5) 2.4. Radical Scavenging Activity […]
(§6) The ABTS radical scavenging activity was determined according to the method described by Erel. Different concentrations of compounds 5a–d and 10 (10–500 μ M) were mixed with the ABTS+ solution, and the decrease in the absorbance at 734 nm was recorded.

[2] = tested on: Pseudomonas aeruginosa ATCC 15442; test: agar disk diffusion test; format: cell-based; settings: P. aeruginosa, 1.0 × 10^8 CFU.mL^−1; 20 μL compound diluted in DMSO (1:1) per 6 mm disc; streptomycin 10 µg; mean of two repetitions
Description: as §1, §2, §3, §4, §5, §6

[3] = tested on: Escherichia coli O157: H7 NCTC 12900; test: agar disk diffusion test; format: cell-based; settings: E. coli O157:H7, 1.0 × 10^8 CFU.mL^−1; 20 μL compound diluted in DMSO (1:1) per 6 mm disc; streptomycin 10 µg; mean of two repetitions
Description: as §1, §2, §3, §4, §5, §6

[4] = tested on: Listeria monocytogenes ATCC 7644; test: agar disk diffusion test; format: cell-based; settings: L. monocytogenes, 1.0 × 10^8 CFU.mL^−1; 20 μL compound diluted in DMSO (1:1) per 6 mm disc; streptomycin 10 µg; mean of two repetitions
Description: as §1, §2, §3, §4, §5, §6

[5] = tested on: Staphylococcus aureus ATCC 25923; test: agar disk diffusion test; format: cell-based; settings: S. aureus, 1.0 × 10^8 CFU.mL^−1; 20 μL compound diluted in DMSO (1:1) per 6 mm disc; streptomycin 10 µg; mean of two repetitions
Description: as §1, §2, §3, §4, §5, §6

δ-ALA-D = molecular target: T1, δ-ALA-D (Mus musculus, UniProt P10518); test: δ-ALA-D activity in tissue supernatants (in vitro toxicity); settings: mean ± SD (n = 3)
T1 sequence (P10518 1-330): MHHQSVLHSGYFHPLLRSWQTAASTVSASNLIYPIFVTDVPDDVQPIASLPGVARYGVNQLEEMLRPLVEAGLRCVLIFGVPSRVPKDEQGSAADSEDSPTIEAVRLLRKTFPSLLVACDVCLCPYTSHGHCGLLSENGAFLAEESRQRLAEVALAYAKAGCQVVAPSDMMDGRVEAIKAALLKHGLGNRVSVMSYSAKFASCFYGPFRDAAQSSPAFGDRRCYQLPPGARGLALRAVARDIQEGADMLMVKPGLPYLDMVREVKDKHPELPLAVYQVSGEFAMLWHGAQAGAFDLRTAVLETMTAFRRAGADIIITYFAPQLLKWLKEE

[6] = Ferric ion reducing antioxidant power (FRAP); settings: mean ± SD (n = 3)
Description: The antioxidant properties of the synthesized compounds (5a–d and 10) were evaluated by three different methods in vitro: DPPH (1,1-diphenyl-2-picryl-hydrazyl) and ABTS^+ (2,2′-azino-bis(3-ethylbenzthiazoline-6-sulfonic acid) radical scavenging ability and ferric ion reducing antioxidant power (FRAP). All drugs were dissolved in dimethyl sulfoxide (DMSO) at concentrations of 1–500 µM. These assays were performed according to the literature and details of these experiments are described elsewhere (see the ‘Results and Discussion’ section for the references).
values, as calculated by the following equation:
I% = [(Ac−As/Ac) × 100] (1)
3. Ferric ion reducing antioxidant power (FRAP)
reducing capacity of compounds 5a–d and 10.
[8] with slight modifications. […]

[7] = tested on: Salmonella Typhimurium ATCC 14028; test: agar disk diffusion test; format: cell-based; settings: S. Typhimurium, 1.0 × 10^8 CFU.mL^−1; 20 μL compound diluted in DMSO (1:1) per 6 mm disc; streptomycin 10 µg; mean of two repetitions
Description: as §1, §2, §3, §4, §5, §6

Row | Structure (SMILES) | Inhibition Zone [1] | Inhibition Zone [2] | Inhibition Zone [3] | Inhibition Zone [4] | Inhibition Zone [5] | δ-ALA-D activity (δ-ALA-D; Brain, 10 μM) | δ-ALA-D activity (δ-ALA-D; Brain, 50 μM) | δ-ALA-D activity (δ-ALA-D; Brain, 100 μM) | δ-ALA-D activity (δ-ALA-D; Brain, 500 μM) | δ-ALA-D activity (δ-ALA-D; Kidney, 10 μM) | δ-ALA-D activity (δ-ALA-D; Kidney, 50 μM) | δ-ALA-D activity (δ-ALA-D; Kidney, 100 μM) | δ-ALA-D activity (δ-ALA-D; Kidney, 500 μM) | δ-ALA-D activity (δ-ALA-D; Liver, 10 μM) | δ-ALA-D activity (δ-ALA-D; Liver, 50 μM) | δ-ALA-D activity (δ-ALA-D; Liver, 100 μM) | δ-ALA-D activity (δ-ALA-D; Liver, 500 μM) | Ferric ion reducing antioxidant power (FRAP), absorbance at 593 nm ([6]; 10 μM) | Ferric ion reducing antioxidant power (FRAP), absorbance at 593 nm ([6]; 50 μM) | Ferric ion reducing antioxidant power (FRAP), absorbance at 593 nm ([6]; 100 μM) | also measured
1 | CC(C)=CCCC(C)(C/C=[N+](\C)[O-])Sc1ccccc1 (centres unmarked) [5c, (E)-N,3,7-trimethyl-3-(phenylthio)oct-6-en-1-imine oxide] | 24.5 mm | 24 mm | 21.5 mm | 26.0 mm and 26 mm | 24 mm | 0.30 ± 0.10 nmol PBG.mg.tn‐1.h‐1 | 0.28 ± 0.09 nmol PBG.mg.tn‐1.h‐1 | 0.26 ± 0.08 nmol PBG.mg.tn‐1.h‐1 | 0.26 ± 0.07 nmol PBG.mg.tn‐1.h‐1 | 1.10 ± 0.12 nmol PBG.mg.tn‐1.h‐1 | 1.02 ± 0.12 nmol PBG.mg.tn‐1.h‐1 | 0.99 ± 0.10 nmol PBG.mg.tn‐1.h‐1 | 0.90 ± 0.07 nmol PBG.mg.tn‐1.h‐1 | 4.63 ± 0.82 nmol PBG.mg.tn‐1.h‐1 | 4.31 ± 0.81 nmol PBG.mg.tn‐1.h‐1 | 4.12 ± 0.90 nmol PBG.mg.tn‐1.h‐1 | 3.88 ± 0.87 nmol PBG.mg.tn‐1.h‐1 | 0.153 ± 0.047 | 0.543 ± 0.047 | 1.121 ± 0.160 | 
2 | CC(C)=CCCC(C)C(/C=[N+](\C)[O-])Sc1ccccc1 (centres unmarked) [5a, (E)-N,3,7-Trimethyl-2-(phenylthio)oct-6-en-1-imine oxide] | 21.5 mm | 8.5 mm | 11 mm | 18 mm | 15 mm | 0.44 ± 0.09 nmol PBG.mg.tn‐1.h‐1 | 0.42 ± 0.10 nmol PBG.mg.tn‐1.h‐1 | 0.40 ± 0.11 nmol PBG.mg.tn‐1.h‐1 | 0.36 ± 0.10 nmol PBG.mg.tn‐1.h‐1 | 1.17 ± 0.05 nmol PBG.mg.tn‐1.h‐1 | 1.17 ± 0.07 nmol PBG.mg.tn‐1.h‐1 | 1.09 ± 0.08 nmol PBG.mg.tn‐1.h‐1 | 0.90 ± 0.08 nmol PBG.mg.tn‐1.h‐1 | 4.99 ± 0.84 nmol PBG.mg.tn‐1.h‐1 | 4.87 ± 0.67 nmol PBG.mg.tn‐1.h‐1 | 4.71 ± 0.89 nmol PBG.mg.tn‐1.h‐1 | 4.46 ± 0.80 nmol PBG.mg.tn‐1.h‐1 | 0.207 ± 0.019 | 0.572 ± 0.023 | 1.039 ± 0.067 | Inhibition Zone [7]: 8.5 mm; Ferric ion reducing antioxidant power (FRAP), absorbance at 593 nm ([6]; 5 μM): 0.165 ± 0.007
3 | CC(C)=CCCC(C)C/C=[N+](\C)[O-] (centres unmarked) [5d, (E)-N,3,7-trimethyloct-6-en-1-imine oxide] | 29 mm | 23 mm | 22.5 mm | 31.0 mm and 31 mm | 24.5 mm | 0.29 ± 0.09 nmol PBG.mg.tn‐1.h‐1 | 0.27 ± 0.10 nmol PBG.mg.tn‐1.h‐1 | 0.26 ± 0.09 nmol PBG.mg.tn‐1.h‐1 | 0.24 ± 0.08 nmol PBG.mg.tn‐1.h‐1 | 1.02 ± 0.11 nmol PBG.mg.tn‐1.h‐1 | 0.96 ± 0.12 nmol PBG.mg.tn‐1.h‐1 | 0.89 ± 0.12 nmol PBG.mg.tn‐1.h‐1 | 0.72 ± 0.07 nmol PBG.mg.tn‐1.h‐1 | 4.50 ± 0.60 nmol PBG.mg.tn‐1.h‐1 | 4.22 ± 0.78 nmol PBG.mg.tn‐1.h‐1 | 3.54 ± 0.84 nmol PBG.mg.tn‐1.h‐1 | 2.84 ± 0.57 nmol PBG.mg.tn‐1.h‐1 | 0.412 ± 0.055 | 1.198 ± 0.024 |  | Inhibition Zone [7]: 23 mm; Ferric ion reducing antioxidant power (FRAP), absorbance at 593 nm ([6]; 1 μM): 0.166 ± 0.008; Ferric ion reducing antioxidant power (FRAP), absorbance at 593 nm ([6]; 5 μM): 0.280 ± 0.022
4 | CC(C)=CCC[C@@H](C)C(/C=N/O)[Se]c1ccccc1 (stereo partly drawn) [compound 10, (3R,E)-3,7-dimethyl-2-(phenylselanyl)oct-6-enal oxime] | 19 mm | 9 mm | 9 mm | 21 mm | 22 mm | 0.30 ± 0.10 nmol PBG.mg.tn‐1.h‐1 | 0.28 ± 0.09 nmol PBG.mg.tn‐1.h‐1 | 0.26 ± 0.08 nmol PBG.mg.tn‐1.h‐1 | 0.26 ± 0.07 nmol PBG.mg.tn‐1.h‐1 | 0.96 ± 0.12 nmol PBG.mg.tn‐1.h‐1 | 0.95 ± 0.10 nmol PBG.mg.tn‐1.h‐1 | 0.84 ± 0.10 nmol PBG.mg.tn‐1.h‐1 | 0.61 ± 0.12 nmol PBG.mg.tn‐1.h‐1 | 4.90 ± 0.58 nmol PBG.mg.tn‐1.h‐1 | 4.71 ± 0.53 nmol PBG.mg.tn‐1.h‐1 | 4.57 ± 0.62 nmol PBG.mg.tn‐1.h‐1 | 3.97 ± 0.82 nmol PBG.mg.tn‐1.h‐1 | 0.084 ± 0.010 | 0.180 ± 0.008 | 0.257 ± 0.007 | Inhibition Zone [7]: 10.5 mm; Ferric ion reducing antioxidant power (FRAP), absorbance at 593 nm ([6]; 500 μM): 1.291 ± 0.045
